Measurements from US20230120895A1, “PESTICIDALLY ACTIVE HETEROCYCLIC DERIVATIVES WITH SULFUR CONTAINING SUBSTITUENTS” (SYNGENTA CROP PROTECTION AG, priority 2019, published 2023).

Tests used:
Assay type in all cases: in vivo
Euschistus heros = assay: Activity against Euschistus heros (neotropical brown stink bug); details: 120 h, application rate 200 ppm, sprayed soybean leaves, N2 nymphs, 5 days after infestation, read-out: effect in at least one of the two categories (mortality or growth inhibition)
Description: Soybean leaves on agar in 24-well microtiter plates were sprayed with aqueous test solutions prepared from 10′000 ppm DMSO stock solutions. After drying the leaves were infested with N2 nymphs. The samples were assessed for mortality and growth inhibition in comparison to untreated samples 5 days after infestation.

Chilo suppressalis = assay: Activity against Chilo suppressalis (striped rice stemborer); details: 144 h, application rate 200 ppm, artificial diet, L2 larvae, 6 days after infestation, read-out: control (mortality, anti-feeding effect or growth inhibition)
Description: 24-well microtiter plates with artificial diet were treated with aqueous test solutions prepared from 10′000 ppm DMSO stock solutions by pipetting. After drying, the plates were infested with L2 larvae (6-8 per well). The samples were assessed for mortality, anti-feeding effect, and growth inhibition in comparison to untreated samples 6 days after infestation. Control of Chilo suppressalis by a test sample is given when at least one of the categories mortality, anti-feedant effect, and growth inhibition is higher than the untreated sample.

Spodoptera littoralis = assay: Activity against Spodoptera littoralis (Egyptian cotton leaf worm); details: foliar, 72 h, application rate 200 ppm, sprayed cotton leaf discs, L1 larvae, 3 days after infestation, read-out: control (mortality, anti-feeding effect or growth inhibition)
Description: Cotton leaf discs were placed onto agar in 24-well microtiter plates and sprayed with aqueous test solutions prepared from 10′000 ppm DMSO stock solutions. After drying the leaf discs were infested with five L1 larvae. The samples were assessed for mortality, anti-feeding effect, and growth inhibition in comparison to untreated samples 3 days after infestation. Control of Spodoptera littoralis by a test sample is given when at least one of the categories mortality, anti-feedant effect, and growth inhibition is higher than the untreated sample.

Plutella xylostella = assay: Activity against Plutella xylostella (diamond back moth); details: 192 h, application rate 200 ppm, artificial diet, eggs, 8 days after infestation, read-out: effect in at least one of the two categories (mortality or growth inhibition)
Description: 24-well microtiter plates with artificial diet were treated with aqueous test solutions prepared from 10′000 ppm DMSO stock solutions by pipetting. After drying, Plutella eggs were pipetted through a plastic stencil onto a gel blotting paper and the plate was closed with it. The samples were assessed for mortality and growth inhibition in comparison to untreated samples 8 days after infestation. The following compounds gave an effect of at least 80% in at least one of the two categories (mortality or growth inhibition) at an application rate of 200 ppm: P2, P3, P4, P5, P6, P8, P13.

[1] = system: Carpocapsa (Cydia) pomonella; assay: Activity against Carpocapsa (Cydia) pomonella (codling moth); details: 336 h, application rate 12.5 ppm, sprayed diet cubes, L1 larvae, 14 days after infestation
Description: Diet cubes coated with paraffin were sprayed with diluted test solutions in an application chamber. After drying off the treated cubes (10 replicates) were infested with 1 L1 larvae. Samples were incubated at 26-27° C. and checked 14 days after infestation for mortality and growth inhibition.

Diabrotica balteata = assay: Activity against Diabrotica balteata (corn root worm); details: 96 h, application rate 200 ppm, sprayed maize sprouts, L2 larvae, 4 days after infestation, read-out: effect in at least one of the two categories (mortality or growth inhibition)
Description: Maize sprouts placed onto an agar layer in 24-well microtiter plates were treated with aqueous test solutions prepared from 10′000 ppm DMSO stock solutions by spraying. After drying, the plates were infested with L2 larvae (6 to 10 per well). The samples were assessed for mortality and growth inhibition in comparison to untreated samples 4 days after infestation.

Myzus persicae [2] = assay: Activity against Myzus persicae (green peach aphid), feeding/contact activity; details: foliar, 144 h, application rate 200 ppm, sprayed sunflower leaf discs, mixed ages, 6 days after infestation
Description: Sunflower leaf discs were placed onto agar in a 24-well microtiter plate and sprayed with aqueous test solutions prepared from 10′000 ppm DMSO stock solutions. After drying, the leaf discs were infested with an aphid population of mixed ages. The samples were assessed for mortality 6 days after infestation.

Myzus persicae [3] = assay: Activity against Myzus persicae (green peach aphid), systemic activity; details: 144 h, test rate 24 ppm, roots of pea seedlings in test solution, 6 days
Description: Roots of pea seedlings infested with an aphid population of mixed ages were placed directly into aqueous test solutions prepared from 10′000 DMSO stock solutions. The samples were assessed for mortality 6 days after placing seedlings into test solutions.

[4] = system: Frankliniella occidentalis; assay: Activity against Frankliniella occidentalis (western flower thrips); details: foliar, 168 h, application rate 200 ppm, sprayed sunflower leaf discs, mixed ages, 7 days after infestation
Description: Sunflower leaf discs were placed on agar in 24-well microtiter plates and sprayed with aqueous test solutions prepared from […] stock solutions. After drying the leaf discs were infested with a Frankliniella population of mixed ages. The samples were assessed for mortality 7 days after infestation.

CCS(=O)(=O)c1cc(C(C)(C)C#N)cnc1-c1cc2ccc(=O)n(CC(F)(F)C(F)(F)F)c2cn1 [P6, 2-[5-ethylsulfonyl-6-[2-oxo-1-(2,2,3,3,3-pentafluoropropyl)-1,7-naphthyridin-6-yl]-3-pyridyl]-2-methyl-propanenitrile]
≥ 80%: percent effect (mortality or growth inhibition) at 200 ppm (Euschistus heros) | percent control (mortality, anti-feedant effect or growth inhibition) at 200 ppm (Chilo suppressalis) | percent control (mortality, anti-feedant effect or growth inhibition) at 200 ppm (Spodoptera littoralis) | percent effect (mortality or growth inhibition) at 200 ppm (Plutella xylostella) | mortality at 12.5 ppm [1] | percent effect (mortality or growth inhibition) at 200 ppm (Diabrotica balteata)

CCS(=O)(=O)c1ccc(-n2cncn2)nc1-c1cc2ccc(=O)n(CC(F)(F)C(F)(F)F)c2cn1 [P4, 6-[3-ethylsulfonyl-6-(1,2,4-triazol-1-yl)-2-pyridyl]-1-(2,2,3,3,3-pentafluoropropyl)-1,7-naphthyridin-2-one]
≥ 80%: percent control (mortality, anti-feedant effect or growth inhibition) at 200 ppm (Chilo suppressalis) | percent control (mortality, anti-feedant effect or growth inhibition) at 200 ppm (Spodoptera littoralis) | percent effect (mortality or growth inhibition) at 200 ppm (Plutella xylostella) | mortality at 12.5 ppm [1]

CCS(=O)(=O)c1cccnc1-c1cc2ccc(=O)n(CC(F)(F)C(F)(F)F)c2cn1 [P2, 6-(3-ethylsulfonyl-2-pyridyl)-1-(2,2,3,3,3-pentafluoropropyl)-1,7-naphthyridin-2-one]
≥ 80%: percent effect (mortality or growth inhibition) at 200 ppm (Euschistus heros) | percent control (mortality, anti-feedant effect or growth inhibition) at 200 ppm (Chilo suppressalis) | percent control (mortality, anti-feedant effect or growth inhibition) at 200 ppm (Spodoptera littoralis) | percent effect (mortality or growth inhibition) at 200 ppm (Plutella xylostella) | mortality at 200 ppm (Myzus persicae [2]) | mortality at 24 ppm (Myzus persicae [3]) | percent effect (mortality or growth inhibition) at 200 ppm (Diabrotica balteata)

CCS(=O)(=O)c1cc(N(C)C(C)=O)cnc1-c1cc2ccc(=O)n(CC(F)(F)C(F)(F)F)c2cn1 [P7, N-[5-ethylsulfonyl-6-[2-oxo-1-(2,2,3,3,3-pentafluoropropyl)-1,7-naphthyridin-6-yl]-3-pyridyl]-N-methyl-acetamide]
≥ 80%: percent control (mortality, anti-feedant effect or growth inhibition) at 200 ppm (Chilo suppressalis) | percent control (mortality, anti-feedant effect or growth inhibition) at 200 ppm (Spodoptera littoralis) | mortality at 200 ppm (Myzus persicae [2]) | mortality at 24 ppm (Myzus persicae [3]) | percent effect (mortality or growth inhibition) at 200 ppm (Diabrotica balteata)

CCS(=O)(=O)c1cc(C2(C#N)CC2)cnc1-c1cc2ccc(=O)n(CC(F)(F)C(F)(F)F)c2cn1 [P3, 1-[5-ethylsulfonyl-6-[2-oxo-1-(2,2,3,3,3-pentafluoropropyl)-1,7-naphthyridin-6-yl]-3-pyridyl]cyclopropanecarbonitrile]
≥ 80%: percent effect (mortality or growth inhibition) at 200 ppm (Euschistus heros) | percent control (mortality, anti-feedant effect or growth inhibition) at 200 ppm (Chilo suppressalis) | percent control (mortality, anti-feedant effect or growth inhibition) at 200 ppm (Spodoptera littoralis) | percent effect (mortality or growth inhibition) at 200 ppm (Plutella xylostella) | mortality at 12.5 ppm [1] | mortality at 200 ppm (Myzus persicae [2]) | mortality at 24 ppm (Myzus persicae [3]) | mortality at 200 ppm [4] | percent effect (mortality or growth inhibition) at 200 ppm (Diabrotica balteata)

CCS(=O)(=O)c1cc(C2(C#N)CC2)cnc1-c1cc2ccc(=O)n(CC(F)(F)F)c2cn1 [P10, 1-[5-ethylsulfonyl-6-[2-oxo-1-(2,2,2-trifluoroethyl)-1,7-naphthyridin-6-yl]-3-pyridyl]cyclopropanecarbonitrile]
≥ 80%: percent effect (mortality or growth inhibition) at 200 ppm (Euschistus heros) | percent control (mortality, anti-feedant effect or growth inhibition) at 200 ppm (Chilo suppressalis) | percent control (mortality, anti-feedant effect or growth inhibition) at 200 ppm (Spodoptera littoralis) | mortality at 200 ppm (Myzus persicae [2]) | percent effect (mortality or growth inhibition) at 200 ppm (Diabrotica balteata)

CCS(=O)(=O)c1ccc(C2CC2)nc1-c1cc2ccc(=O)n(CC(F)(F)C(F)(F)F)c2cn1 [P5, 6-(6-cyclopropyl-3-ethylsulfonyl-2-pyridyl)-1-(2,2,3,3,3-pentafluoropropyl)-1,7-naphthyridin-2-one]
≥ 80%: percent control (mortality, anti-feedant effect or growth inhibition) at 200 ppm (Chilo suppressalis) | percent control (mortality, anti-feedant effect or growth inhibition) at 200 ppm (Spodoptera littoralis) | percent effect (mortality or growth inhibition) at 200 ppm (Plutella xylostella) | mortality at 200 ppm (Myzus persicae [2]) | percent effect (mortality or growth inhibition) at 200 ppm (Diabrotica balteata)
